Assay results taken from patent US20250333371A1, “COMPOUNDS” (PSYLO PTY LTD, priority 2022, published 2025).
pEC50: −log10 of the molar value. Like-named read-outs stand apart in the source and are kept apart here.

What was measured:
Type in all cases: cell-based
[1] = biological target: T1, 5-HT2A (Homo sapiens, UniProt P28223); experiment: FLIPR Ca2+ flux functional assay, 5-HT2A receptor (stably transfected HEK293); conditions: for Emax at 10 µM: no EC50 value given, read-out: 5-HT2A Emax (%) printed as % @ 10 uM
T1 construct: host or cells: HEK293
T1 sequence (P28223 whole entry): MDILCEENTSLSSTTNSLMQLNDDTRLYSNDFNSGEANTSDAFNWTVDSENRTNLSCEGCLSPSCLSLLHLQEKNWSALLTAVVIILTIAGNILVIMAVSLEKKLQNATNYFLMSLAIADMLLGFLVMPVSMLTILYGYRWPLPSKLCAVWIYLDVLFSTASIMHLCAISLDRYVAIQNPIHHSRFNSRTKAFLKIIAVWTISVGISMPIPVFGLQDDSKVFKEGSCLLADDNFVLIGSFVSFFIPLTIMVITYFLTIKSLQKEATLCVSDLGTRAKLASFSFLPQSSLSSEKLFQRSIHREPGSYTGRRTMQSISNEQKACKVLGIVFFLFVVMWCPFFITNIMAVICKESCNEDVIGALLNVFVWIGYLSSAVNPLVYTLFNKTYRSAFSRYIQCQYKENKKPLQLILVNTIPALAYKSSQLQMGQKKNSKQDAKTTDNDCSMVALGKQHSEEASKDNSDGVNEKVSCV
Procedure: (§1) Activity at 5-HT2A, 5-HT2B and 5-HT2C receptors was determined using a FLIPR Ca^2+ flux assay at WuXi AppTec Co. Ltd. (Hong Kong) Discovery Biology Unit according to their standard protocols. Briefly, stably transfected cells expressing the receptor of interest (HEK293 for 5-HT2A and 5-HT2C; CHO-K1 for 5-HT2B) were grown and plated in a 384 well plate and incubated at 37° C. and 5% CO2 overnight. A 250 mM stock solution of probenecid in FLIPR calcium assay buffer (10 mL) was freshly prepared and combined with a fluorescent dye (Fluo-4 Direct) to give a final assay concentration of 2.5 mM. Reference compounds were 4-fold serially diluted and the screening compounds were 3-fold serially diluted in 100% DMSO for 10 points using Agilent Bravo, and 750 nL was added to a 384 well compound plate using Echo along with 30 μL assay buffer. The fluorescent dye was then added to the assay plate along with assay buffer to a final volume of 40 μL. The cell plate was incubated for 50 min at 37° C. and 5% CO2 and placed into the FLIPR Tetra along with the compound plate. 10 μL of references and compounds were then transferred from the compound plate into the cell plate and the fluorescent signal was read.

[2] = biological target: T2, 5-HT2C (Homo sapiens, UniProt P28335); experiment: FLIPR Ca2+ flux functional assay, 5-HT2C receptor (stably transfected HEK293)
T2 construct: host or cells: HEK293
T2 sequence (P28335 33-458): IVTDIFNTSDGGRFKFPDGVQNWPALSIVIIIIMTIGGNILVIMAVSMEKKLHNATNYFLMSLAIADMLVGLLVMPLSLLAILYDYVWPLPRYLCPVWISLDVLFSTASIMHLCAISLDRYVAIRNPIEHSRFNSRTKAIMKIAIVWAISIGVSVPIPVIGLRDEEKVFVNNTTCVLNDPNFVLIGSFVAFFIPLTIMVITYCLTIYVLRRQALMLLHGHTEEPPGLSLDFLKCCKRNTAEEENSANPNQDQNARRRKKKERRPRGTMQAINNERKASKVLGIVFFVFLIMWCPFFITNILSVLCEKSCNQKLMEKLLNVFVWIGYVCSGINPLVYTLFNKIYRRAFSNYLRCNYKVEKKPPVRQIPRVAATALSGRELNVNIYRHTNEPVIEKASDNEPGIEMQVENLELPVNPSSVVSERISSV
Procedure: as §1

[3] = biological target: T3, 5-HT2B (Homo sapiens, UniProt P41595); experiment: FLIPR Ca2+ flux functional assay, 5-HT2B receptor (stably transfected CHO-K1)
T3 construct: host or cells: CHO-K1
T3 sequence (P41595 whole entry): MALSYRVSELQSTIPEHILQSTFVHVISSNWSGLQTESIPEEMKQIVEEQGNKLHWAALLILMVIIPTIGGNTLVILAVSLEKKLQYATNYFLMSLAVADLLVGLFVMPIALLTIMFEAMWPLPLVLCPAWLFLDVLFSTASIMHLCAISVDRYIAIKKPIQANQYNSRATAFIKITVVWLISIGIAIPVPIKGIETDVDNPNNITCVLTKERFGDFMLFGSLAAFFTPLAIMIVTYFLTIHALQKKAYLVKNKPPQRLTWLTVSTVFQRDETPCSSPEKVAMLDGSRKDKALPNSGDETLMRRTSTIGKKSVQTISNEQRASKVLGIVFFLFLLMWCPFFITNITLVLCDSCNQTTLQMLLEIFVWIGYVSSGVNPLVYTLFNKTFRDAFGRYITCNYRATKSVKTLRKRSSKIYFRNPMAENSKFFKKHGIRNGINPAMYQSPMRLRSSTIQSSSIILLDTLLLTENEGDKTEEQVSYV
Procedure: as §1

[4] = agonist activity, Ca2+ flux, HEK293
[5] = agonist activity, Ca2+ flux, HEK293, read-out: 5-HT2A EC50
[6] = agonist activity, Ca2+ flux, CHO-K1
[7] = agonist activity, Ca2+ flux, HEK293, read-out: 5-HT2C EC50
[8] = agonist activity, Ca2+ flux, CHO-K1, read-out: 5-HT2B EC50

SMILES	Emax [1, 4]	pEC50 [1, 5]	pEC50 [2]	Emax [2, 4]	pEC50 [3]	Emax [3, 6]	pEC50 [1]	pEC50 [2, 7]	pEC50 [3, 8]	Emax at 10 µM ([1]; HEK293)
COc1ccc2cccc(CCN(C)C)c2c1 [Example I-1, 2-(7-methoxynaphthalen-1-yl)-N,N-dimethylethan-1-amine]	79%	7.02	7.48	82%	< 5.00	-0.99%	–	–	–	–
CCN(CC)CCc1cccc2ccc(OC)cc12 [Example I-2, N,N-diethyl-2-(7-methoxynaphthalen-1-yl)ethan-1-amine]	70%	–	6.13	88%	< 5.00	12%	6.44	–	–	–
CCCN(CCC)CCc1cccc2ccc(OC)cc12 [Example I-3, N-(2-(7-methoxynaphthalen-1-yl)ethyl)-N-propylpropan-1-amine]	77%	6.63	–	97%	–	72%	–	6.03	6.65	–
COc1ccc2cccc(CCN(C(C)C)C(C)C)c2c1 [Example I-4, N-isopropyl-N-(2-(7-methoxynaphthalen-1-yl)ethyl)propan-2-amine]	111%	6.35	–	99%	–	123%	–	5.90	5.92	–
CCN(C)CCc1cccc2ccc(OC)cc12 [Example I-5, N-ethyl-2-(7-methoxynaphthalen-1-yl)-N-methylethan-1-amine]	63%	7.07	7.37	94%	< 5.00	17%	–	–	–	–
CCCN(C)CCc1cccc2ccc(OC)cc12 [Example I-6, N-(2-(7-methoxynaphthalen-1-yl)ethyl)-N-methylpropan-1-amine]	81%	–	7.10	95%	< 5.00	24%	6.90	–	–	–
COc1ccc2cccc(CCN(C)C)c2n1 [Example I-8, 2-(2-methoxyquinolin-8-yl)-N,N-dimethylethan-1-amine]	–	–	–	87%	–	8%	–	6.50	< 5.00	24%
COc1cnc2cccc(CCN(C)C)c2c1 [Example I-9, 2-(3-methoxyquinolin-5-yl)-N,N-dimethylethan-1-amine]	39%	5.73	–	65%	–	1%	–	5.62	< 5.00	–
COc1cccc2cccc(CCN(C)C)c12 [Example I-13, 2-(8-methoxynaphthalen-1-yl)-N,N-dimethylethan-1-amine]	49%	–	6.24	58%	< 5.00	5%	6.86	–	–	–
COc1cccc(CNCCc2cccc3ccc(OC)cc23)c1 [Example I-17, N-(3-methoxybenzyl)-2-(7-methoxynaphthalen-1-yl)ethan-1-amine]	84%	7.04	–	97%	–	–	–	7.74	–	–
CN(C)CCc1cccc2cccc(O)c12 [Example I-21, 8-(2-(dimethylamino)ethyl)naphthalen-1-ol]	73%	7.28	7.92	90%	–	–	–	–	–	–
CCN(CC)CCc1cccc2cccc(OC)c12 [Example I-22, N,N-diethyl-2-(8-methoxynaphthalen-1-yl)ethan-1-amine]	85%	–	6.80	95%	< 5.00	34%	6.34	–	–	–
CCCN(CCC)CCc1cccc2cccc(OC)c12 [Example I-23, N-(2-(8-methoxynaphthalen-1-yl)ethyl)-N-propylpropan-1-amine]	93%	6.78	–	88%	–	89%	–	6.54	6.99	–
COc1cccc2cccc(CCN(C(C)C)C(C)C)c12 [Example I-24, N-isopropyl-N-(2-(8-methoxynaphthalen-1-yl)ethyl)propan-2-amine]	98%	5.83	–	90%	–	116%	–	5.59	5.33	–
CCN(C)CCc1cccc2cccc(OC)c12 [Example I-25, N-ethyl-2-(8-methoxynaphthalen-1-yl)-N-methylethan-1-amine]	67%	–	6.70	84%	< 5.00	24%	6.80	–	–	–
CCN(C)CCc1cccc2cccc(O)c12 [Example I-26, 8-(2-(methyl(ethyl)amino)ethyl)naphthalen-1-ol]	68%	7.39	7.82	86%	–	–	–	–	–	–
CCCN(C)CCc1cccc2cccc(OC)c12 [Example I-27, N-(2-(8-methoxynaphthalen-1-yl)ethyl)-N-methylpropan-1-amine]	86%	–	6.68	75%	< 5.00	2%	6.67	–	–	–
COc1cccc2cccc(CCN(C)C(C)C)c12 [Example I-28, N-(2-(8-methoxynaphthalen-1-yl)ethyl)-N-methylpropan-2-amine]	94%	–	6.12	76%	< 5.00	46%	6.72	–	–	–
CC(C)N(C)CCc1cccc2cccc(O)c12 [Example I-29, 8-(2-(methyl(isopropyl)amino)ethyl)naphthalen-1-ol]	79%	7.44	7.27	84%	–	–	–	–	–	–
COc1cccc2cccc(CCN(C)C3CC3)c12 [Example I-30, N-(2-(8-methoxynaphthalen-1-yl)ethyl)-N-methylcyclopropanamine]	48%	6.30	–	60%	–	–	–	6.39	–	–
CN(CCc1cccc2cccc(O)c12)C1CC1 [Example I-31, 8-(2-(cyclopropyl(methyl)amino)ethyl)naphthalen-1-ol]	64%	7.22	–	57%	–	–	–	6.91	–	–
CN(C)CCc1cccc2ccc(Cl)cc12 [Example I-32, 2-(7-chloronaphthalen-1-yl)-N,N-dimethylethan-1-amine]	63%	–	7.21	87%	–	–	6.62	–	–	–
CCN(C)CCc1cccc2ccccc12 [Example I-33, N-ethyl-N-methyl-2-(naphthalen-1-yl)ethan-1-amine]	58%	–	6.94	67%	–	–	6.69	–	–	–
CN(C)CCc1cccc2ccc(F)cc12 [Example I-38, 2-(7-fluoronaphthalen-1-yl)-N,N-dimethylethan-1-amine]	66%	–	7.34	83%	–	–	6.61	–	–	–
CCN(C)CCc1cccc2ccc(F)cc12 [Example I-39, N-ethyl-2-(7-fluoronaphthalen-1-yl)-N-methylethan-1-amine]	58%	–	7.48	93%	–	–	6.77	–	–	–
CC(C)N(C)CCc1cccc2ccc(F)cc12 [Example I-40, N-(2-(7-fluoronaphthalen-1-yl)ethyl)-N-methylpropan-2-amine]	68%	–	6.92	84%	–	–	6.42	–	–	–
CN(CCc1cccc2ccc(F)cc12)C1CC1 [Example I-41, N-(2-(7-fluoronaphthalen-1-yl)ethyl)-N-methylcyclopropanamine]	33%	5.99	–	80%	–	–	–	6.82	–	–
COc1cccc2c(CCN(C)C)cccc12 [Example I-50, 2-(5-methoxynaphthalen-1-yl)-N,N-dimethylethan-1-amine]	–	–	–	–	–	–	–	–	–	28%
COc1cccc2c(CCN)cccc12 [Example I-52, 2-(5-methoxynaphthalen-1-yl)ethan-1-amine]	79%	–	6.54	91%	–	–	6.53	–	–	–
NCCc1cccc2ccc(F)cc12 [Example I-53, 2-(7-fluoronaphthalen-1-yl)ethan-1-amine]	83%	–	9.00	97%	–	–	7.47	–	–	–
